{
  "source": "paper PMC4057681",
  "about": "“Antenna-Specific Glutathione S-Transferase in Male Silkmoth Bombyx mori” (International Journal of Molecular Sciences, 2014)",
  "test_system": "T1, BmGSTD4",
  "T1 construct": "245 aa precursor; signal peptide (22 aa) and the first two mature residues (Gly, Pro) removed; p28 vector (from pET28a), nickel column, E. coli Rosetta (DE3); about 26 kDa on SDS-PAGE; mature calculated 25,518 Da; by translation of printed primers: precursor begins MLTASVLG, construct begins (M)KKLVAPIK, C-terminus FINKDDE",
  "assay": "spectrophotometric GSH conjugation at […] nm, steady-state kinetics",
  "type": "biochemical, Bombyx mori",
  "conditions": "1 mM GSH, 0.1 M phosphate buffer pH 6.5",
  "data": [
    {"molecule": "O=[N+]([O-])c1ccc(Cl)c([N+](=O)[O-])c1", "note": "[CDNB, 1-chloro-2,4-dinitrobenzene]", "values": [
      {"measurement": "Km", "value": 20, "unit": "µM"}
    ]}
  ]
}
